Results taken from patent US20240365781A1, “SYNERGISTICALLY EFFECTIVE HERBICIDE COMPOSITION COMPRISING PELARGONIC ACID AND FLAZASULFURON” (Belchim Crop Protection NV, priority 2017, published 2024).

Key:
Type in all cases: in vivo
[1] = tested on: Digitaria sanguinalis and Setaria pumila; experiment: post-emergence field trial under rows of vines, 150-200 L water/ha (Examples 6-9); details: flazasulfuron 40 g/ha
From the text: The expected activity of a given combination of two or three herbicides can be calculated as follows according to a calculation method by Colby (cf. COLBY, S. R.: “Calculating synergistic and antagonistic responses of herbicide combinations”, • Weeds 15, pages 20-22, 1967): • If X=% damage by herbicide (A) at an application rate of m g/ha, • Y=% damage by herbicide (B) at an application rate of n g/ha, • E=the expected damage by herbicides (A) and (B) at application rates of m and n […] and, • then for a combination:
Individual compositions comprising pelargonic acid or flazasulfuron are compared with a herbicide composition according to the invention comprising pelargonic acid and flazasulfuron.
(§1) Herbicidal activity was determined by performing a post-emergence test. […] The corresponding mixture was in the form of a spray solution. Besides, spray solutions of individual compositions comprising pelargonic acid or flazasulfuron were used.
(§2) The spray solution was applied on plants of unwanted vegetation present on fields where perennial crops were grown.
(§3) After 5 to 88 days after application of the spray solution, the degree of damage to the unwanted vegetation is rated in % of plants of unwanted vegetation that were killed. Tests were performed on test fields (field trials).

Poa annua = experiment: post-emergence field trial under rows of apple trees, 150-200 L water/ha (Examples 10-12)
Procedure: as §1, §2, §3

Setaria viridis = experiment: as above
Procedure: as §1, §2, §3

Trifolium repens = experiment: as above
Procedure: as §1, §2, §3

Veronica persicae = experiment: as above
Procedure: as §1, §2, §3

Stellaria media = experiment: as above
Procedure: as §1, §2, §3

Senecio vulgaris = experiment: as above; details: Senecio vulgaris/6 d; 5440 g of active compound/ha
Procedure: as §1, §2, §3

`CCCCCCCCC(=O)O` [Pelargonic acid, nonanoic acid] gave a herbicidal effect ([1]; 7 d, pelargonic acid 5440 g/ha) of 97%, a herbicidal effect ([1]; 7 d, pelargonic acid 6800 g/ha) of 19% and a herbicidal effect ([1]; 7 d, pelargonic acid 8160 g/ha) of 68%. The herbicidal effect ([1]; 7 d, pelargonic acid 10880 g/ha) was 70%, the herbicidal effect ([1]; 14 d, pelargonic acid 5440 g/ha) was 25% and the herbicidal effect ([1]; 14 d, pelargonic acid 8160 g/ha) was 19%. For the same molecule, the herbicidal effect ([1]; 14 d, pelargonic acid 10880 g/ha) was 38%, the herbicidal effect ([1]; 28 d, pelargonic acid 5440 g/ha) was 0% and the herbicidal effect ([1]; 28 d, pelargonic acid 6800 g/ha) was 0%. The herbicidal effect ([1]; 28 d, pelargonic acid 8160 g/ha) was 0%, the herbicidal effect ([1]; 28 d, pelargonic acid 10880 g/ha) was 31% and the herbicidal effect ([1]; 65 d, pelargonic acid 5440 g/ha) was 0%. For the same molecule, the herbicidal effect ([1]; 65 d, pelargonic acid 8160 g/ha) was 0%, the herbicidal effect ([1]; 65 d, pelargonic acid 10880 g/ha) was 0% and the “herbicidal effect (%)” value (Poa annua; Poa annua/6 d, 5440 g of active compound/ha) was 23%. The “herbicidal effect (%)” value (Poa annua; Poa annua/6 d, 8160 g of active compound/ha) was 40%, the “herbicidal effect (%)” value (Poa annua; Poa annua/6 d, 10880 g of active compound/ha) was 45% and the “herbicidal effect (%)” value (Poa annua; Poa annua/16 d, 5440 g of active compound/ha) was 55%. For the same molecule, the “herbicidal effect (%)” value (Poa annua; Poa annua/16 d, 8160 g of active compound/ha) was 58%, the “herbicidal effect (%)” value (Poa annua; Poa annua/16 d, 10880 g of active compound/ha) was 60% and the “herbicidal effect (%)” value (Poa annua; Poa annua/30 d, 5440 g of active compound/ha) was 53%. The “herbicidal effect (%)” value (Poa annua; Poa annua/30 d, 8160 g of active compound/ha) was 55%, the “herbicidal effect (%)” value (Poa annua; Poa annua/30 d, 10880 g of active compound/ha) was 65% and the “herbicidal effect (%)” value (Poa annua; Poa annua/57 d, 5440 g of active compound/ha) was 0%. For the same molecule, the “herbicidal effect (%)” value (Poa annua; Poa annua/57 d, 8160 g of active compound/ha) was 0%, the “herbicidal effect (%)” value (Poa annua; Poa annua/57 d, 10880 g of active compound/ha) was 0% and the “herbicidal effect (%)” value (Poa annua; Poa annua/78 d, 5440 g of active compound/ha) was 0%. The “herbicidal effect (%)” value (Poa annua; Poa annua/78 d, 8160 g of active compound/ha) was 0%, the “herbicidal effect (%)” value (Poa annua; Poa annua/78 d, 10880 g of active compound/ha) was 1% and the “herbicidal effect (%)” value (Setaria viridis; Setaria viridis/6 d, 5440 g of active compound/ha) was 13%. The “herbicidal effect (%)” value (Setaria viridis; Setaria viridis/6 d, 8160 g of active compound/ha) was 35%, the “herbicidal effect (%)” value (Setaria viridis; Setaria viridis/6 d, 10880 g of active compound/ha) was 40% and the “herbicidal effect (%)” value (Setaria viridis; Setaria viridis/16 d, 5440 g of active compound/ha) was 43%. The “herbicidal effect (%)” value (Setaria viridis; Setaria viridis/16 d, 8160 g of active compound/ha) was 45%, the “herbicidal effect (%)” value (Setaria viridis; Setaria viridis/16 d, 10880 g of active compound/ha) was 48% and the “herbicidal effect (%)” value (Setaria viridis; Setaria viridis/30 d, 5440 g of active compound/ha) was 53%. For the same molecule, the “herbicidal effect (%)” value (Setaria viridis; Setaria viridis/30 d, 8160 g of active compound/ha) was 53%, the “herbicidal effect (%)” value (Setaria viridis; Setaria viridis/30 d, 10880 g of active compound/ha) was 53% and the “herbicidal effect (%)” value (Setaria viridis; Setaria viridis/57 d, 5440 g of active compound/ha) was 0%. For the same molecule, the “herbicidal effect (%)” value (Setaria viridis; Setaria viridis/57 d, 8160 g of active compound/ha) was 0%, the “herbicidal effect (%)” value (Setaria viridis; Setaria viridis/57 d, 10880 g of active compound/ha) was 0% and the “herbicidal effect (%)” value (Setaria viridis; Setaria viridis/78 d, 5440 g of active compound/ha) was 0%. For the same molecule, the “herbicidal effect (%)” value (Setaria viridis; Setaria viridis/78 d, 8160 g of active compound/ha) was 0%, the “herbicidal effect (%)” value (Setaria viridis; Setaria viridis/78 d, 10880 g of active compound/ha) was 0% and the “herbicidal effect (%)” value (Trifolium repens; Trifolium repens/7 d, 5440 g of active compound/ha) was 59%. For the same molecule, the “herbicidal effect (%)” value (Trifolium repens; Trifolium repens/7 d, 8160 g of active compound/ha) was 73%, the “herbicidal effect (%)” value (Trifolium repens; Trifolium repens/7 d, 10880 g of active compound/ha) was 75% and the “herbicidal effect (%)” value (Trifolium repens; Trifolium repens/16 d, 5440 g of active compound/ha) was 9%. For the same molecule, the “herbicidal effect (%)” value (Trifolium repens; Trifolium repens/16 d, 8160 g of active compound/ha) was 13%, the “herbicidal effect (%)” value (Trifolium repens; Trifolium repens/16 d, 10880 g of active compound/ha) was 23% and the “herbicidal effect (%)” value (Trifolium repens; Trifolium repens/26 d, 5440 g of active compound/ha) was 0%. For the same molecule, the “herbicidal effect (%)” value (Trifolium repens; Trifolium repens/26 d, 8160 g of active compound/ha) was 0%, the “herbicidal effect (%)” value (Trifolium repens; Trifolium repens/26 d, 10880 g of active compound/ha) was 0% and the “herbicidal effect (%)” value (Trifolium repens; Trifolium repens/59 d, 5440 g of active compound/ha) was 0%. The “herbicidal effect (%)” value (Trifolium repens; Trifolium repens/59 d, 8160 g of active compound/ha) was 0%, the “herbicidal effect (%)” value (Trifolium repens; Trifolium repens/59 d, 10880 g of active compound/ha) was 0% and the “herbicidal effect (%)” value (Veronica persicae; Veronica persicae/7 d, 5440 g of active compound/ha) was 56%. For the same molecule, the “herbicidal effect (%)” value (Veronica persicae; Veronica persicae/7 d, 8160 g of active compound/ha) was 70%, the “herbicidal effect (%)” value (Veronica persicae; Veronica persicae/7 d, 10880 g of active compound/ha) was 73% and the “herbicidal effect (%)” value (Veronica persicae; Veronica persicae/16 d, 5440 g of active compound/ha) was 30%. The “herbicidal effect (%)” value (Veronica persicae; Veronica persicae/16 d, 8160 g of active compound/ha) was 48%, the “herbicidal effect (%)” value (Veronica persicae; Veronica persicae/16 d, 10880 g of active compound/ha) was 45% and the “herbicidal effect (%)” value (Veronica persicae; Veronica persicae/26 d, 5440 g of active compound/ha) was 0%. For the same molecule, the “herbicidal effect (%)” value (Veronica persicae; Veronica persicae/26 d, 8160 g of active compound/ha) was 0%, the “herbicidal effect (%)” value (Veronica persicae; Veronica persicae/26 d, 10880 g of active compound/ha) was 0% and the “herbicidal effect (%)” value (Veronica persicae; Veronica persicae/59 d, 5440 g of active compound/ha) was 0%. The “herbicidal effect (%)” value (Veronica persicae; Veronica persicae/59 d, 8160 g of active compound/ha) was 0%, the “herbicidal effect (%)” value (Veronica persicae; Veronica persicae/59 d, 10880 g of active compound/ha) was 0% and the “herbicidal effect (%)” value (Stellaria media; Stellaria media/5 d, 5440 g of active compound/ha) was 5%. The “herbicidal effect (%)” value (Stellaria media; Stellaria media/5 d, 10880 g of active compound/ha) was 89%, the “herbicidal effect (%)” value (Stellaria media; Stellaria media/18 d, 5440 g of active compound/ha) was 0% and the “herbicidal effect (%)” value (Stellaria media; Stellaria media/18 d, 8160 g of active compound/ha) was 0%. For the same molecule, the “herbicidal effect (%)” value (Stellaria media; Stellaria media/18 d, 10880 g of active compound/ha) was 0% and the “herbicidal effect (%)” value (Senecio vulgaris) was 26%.
